According to patent US11986471B2, “Compounds and methods of use” (Tango Therapeutics, Inc., priority 2018, dated 2024):
pIC50: −log10 of the molar value.

Experiments:
PRMT5 [1] = target: T1, PRMT5 (Homo sapiens, UniProt O14744); assay: PRMT5 IC50 assay in the presence of SAM as cofactor; assay type: biochemical
T1 construct: purchased Viva (custom protein)
Summary of the method: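 Enzyme: human PRMT5. Conditions: plus SAM, plus MTA, or cofactor-free. Output: IC50 (μM); Ki via IC50/1.5 (SAM) or IC50/13.5 (MTA).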

PRMT5 [2] = target: T1, PRMT5; assay: PRMT5 IC50 assay with no cofactor; assay type: biochemical
Summary of the method: (§1)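 Ki conversion: SAM arm, Ki=IC50/1.5; MTA arm, Ki=IC50/13.5. No-cofactor arm reported as IC50 only. Selectivity expressed as Ki(SAM)/Ki(MTA).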

PRMT5 [3] = target: T1, PRMT5; assay: PRMT5 IC50 assay in the presence of MTA as cofactor; assay type: biochemical; conditions: for pIC50: PRMT5, MTA as cofactor
Summary of the method: as §1

HAP1 MTAP-intact = assay: SDMA in-cell western assay, HAP1 MTAP-intact cell line; assay type: cell-based; conditions: Homo sapiens
Summary of the method: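 Symmetric dimethylarginine (SDMA) levels were measured by in-cell western in an isogenic HAP1 pair, one expressing endogenous MTAP and one MTAP-null, and IC50 values were derived for each line. Compounds whose IC50 ratio between the lines is 3-fold or more are classed as MTAP-selective.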

HAP1 MTAP-deleted = assay: SDMA in-cell western assay, HAP1 MTAP-deleted cell line; assay type: cell-based; conditions: for pIC50: Homo sapiens, HAP1 MTAP-deleted cell line; for MTAP Intact/Deleted Ratio: IC50 ratio HAP1 MTAP-intact / HAP1 MTAP-deleted
Summary of the method: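 Symmetric dimethylarginine (SDMA) levels were measured by in-cell western in MTAP-null HAP1 cells, one half of an MTAP-isogenic pair whose partner line expresses endogenous MTAP. Compound potency is reported as IC50.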

[4] = ratio between Ki in the presence of SAM and Ki in the presence of MTA
[5] = ratio between the Ki in the presence of SAM and the Ki in the presence of MTA

T1 sequence (O14744 whole entry): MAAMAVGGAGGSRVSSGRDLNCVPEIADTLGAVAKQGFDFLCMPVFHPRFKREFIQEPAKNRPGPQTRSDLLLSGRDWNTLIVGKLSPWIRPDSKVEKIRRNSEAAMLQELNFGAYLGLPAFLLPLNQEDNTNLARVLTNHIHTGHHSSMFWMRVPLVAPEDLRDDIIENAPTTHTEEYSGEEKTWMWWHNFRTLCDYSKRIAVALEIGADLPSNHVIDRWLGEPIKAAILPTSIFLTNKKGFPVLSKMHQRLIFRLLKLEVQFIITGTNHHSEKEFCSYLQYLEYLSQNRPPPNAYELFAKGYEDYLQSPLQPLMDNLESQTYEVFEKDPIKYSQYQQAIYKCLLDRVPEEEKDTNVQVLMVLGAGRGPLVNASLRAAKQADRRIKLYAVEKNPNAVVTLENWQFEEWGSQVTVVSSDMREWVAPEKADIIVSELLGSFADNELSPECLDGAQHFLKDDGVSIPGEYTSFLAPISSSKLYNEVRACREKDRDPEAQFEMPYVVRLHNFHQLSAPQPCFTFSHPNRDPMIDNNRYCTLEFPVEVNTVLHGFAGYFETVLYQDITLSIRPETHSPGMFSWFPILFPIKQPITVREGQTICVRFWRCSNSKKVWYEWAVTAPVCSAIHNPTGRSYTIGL
T1 sequence (Q9BQA1 whole entry partner): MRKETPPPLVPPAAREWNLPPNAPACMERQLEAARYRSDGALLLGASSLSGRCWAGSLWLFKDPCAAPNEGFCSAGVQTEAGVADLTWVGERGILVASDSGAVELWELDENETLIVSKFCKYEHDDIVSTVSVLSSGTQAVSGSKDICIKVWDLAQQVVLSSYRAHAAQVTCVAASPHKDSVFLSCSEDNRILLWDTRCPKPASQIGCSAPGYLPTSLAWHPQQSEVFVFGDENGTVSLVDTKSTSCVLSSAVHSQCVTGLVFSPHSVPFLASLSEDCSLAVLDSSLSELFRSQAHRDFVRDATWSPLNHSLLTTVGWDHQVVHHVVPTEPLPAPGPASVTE

Row | Compound | pIC50 (PRMT5 [1]) | pIC50 (PRMT5 [2]; read-out: No Co-factor IC50) | pIC50 (PRMT5 [3]) | pIC50 (HAP1 MTAP-intact) | pIC50 (HAP1 MTAP-deleted) | pIC50 (PRMT5 [2]) | SAM/MTA Ratio (PRMT5 [3]; [4]) | MTAP Intact/Deleted Ratio (HAP1 MTAP-deleted) | SAM/MTA Ratio (PRMT5 [3]; [5])
1 | Cc1c(OCc2cnco2)ccc2c1CCN(C[C@@H](O)CNC(=O)c1ccnc(NC3CCCC3)c1)C2 [Compound 356, 2-(cyclopentylamino)-N-[(2S)-2-hydroxy-3-{5-methyl-6-[(1,3-oxazol-5-yl)methoxy]-1,2,3,4-tetrahydroisoquinolin-2-yl}propyl]pyridine-4-carboxamide] | 6.30 to 7.30 | ≤ 5.30 | 6.30 to 7.30 | ≤ 5.00 | ≤ 5.00 | – | A (a Ki ratio greater than or equal to 10 fold between the Ki in the presence of SAM and the Ki in the presence of MTA) | C* (an IC50 ratio of less than 3 fold between the IC50 in the HAP1 MTAP-intact cell line and the HAP1 MTAP-deleted cell line) | –
2 | CC(=O)N1CCC(Nc2cc(C(=O)NC[C@H](O)CN3CCc4cc(OCc5cn[nH]c5)ccc4C3)ncn2)CC1 [Compound 201, 6-[(1-acetyl-4-piperidyl)amino]-N-[(2S)-2-hydroxy-3-[6-(1H-pyrazol-4-ylmethoxy)-3,4-dihydro-1H-isoquinolin-2-yl]propyl]pyrimidine-4-carboxamide] | 6.30 to 7.30 | 5.30 to 6.30 | 6.30 to 7.30 | 5.00 to 6.00 | > 6.00 | – | A (a Ki ratio greater than or equal to 10 fold between the Ki in the presence of SAM and the Ki in the presence of MTA) | C* (an IC50 ratio of less than 3 fold between the IC50 in the HAP1 MTAP-intact cell line and the HAP1 MTAP-deleted cell line) | –
3 | Cc1ncoc1COc1cc2c(cc1F)CN(C[C@@H](O)CNC(=O)c1ccnc(NC3CCC3)c1)CC2 [Compound 266, (S)-2-(cyclobutylamino)-N-(3-(7-fluoro-6-((4-methyloxazol-5-yl)methoxy)-3,4-dihydroisoquinolin-2(1H)-yl)-2-hydroxypropyl)isonicotinamide] | 6.30 to 7.30 | 5.30 to 6.30 | 6.30 to 7.30 | 5.00 to 6.00 | 5.00 to 6.00 | – | A (a Ki ratio greater than or equal to 10 fold between the Ki in the presence of SAM and the Ki in the presence of MTA) | B* (an IC50 ratio greater than or equal to 3 fold but lower than 10 fold between the IC50 in the HAP1 MTAP-intact cell line and the HAP1 MTAP-deleted cell line) | –
4 | O=C(NC[C@H](O)CN1CCc2c(ccc(OCc3cnco3)c2Cl)C1)c1cc(NC2CCC2)ncc1F [Compound 340, (S)—N-(3-(5-chloro-6-(oxazol-5-ylmethoxy)-3N-dihydroisoquinolin-2(1H)-yl)-2-hydroxypropyl)-2-(cyclobutylamino)-5-fluoroisonicotinamide] | 5.30 to 6.30 | ≤ 5.30 | 6.30 to 7.30 | ≤ 5.00 | ≤ 5.00 | – | A (a Ki ratio greater than or equal to 10 fold between the Ki in the presence of SAM and the Ki in the presence of MTA) | C* (an IC50 ratio of less than 3 fold between the IC50 in the HAP1 MTAP-intact cell line and the HAP1 MTAP-deleted cell line) | –
5 | CC(=O)N1CC(Nc2cc(C(=O)NC[C@H](O)CN3CCc4cc(OCc5cnco5)ccc4C3)nc(N3CCCCC3)n2)C1 [Compound 365, (S)-6-((1-acetylazetidin-3-yl)amino)-N-(2-hydroxy-3-(6-(oxazol-5-ylmethoxy)-3A-dihydroisoquinolin-2(1H)-yl)propyl)-2-(piperidin-1-yl)pyrimidine-4-carboxamide] | 6.30 to 7.30 | 5.30 to 6.30 | > 7.30 | 5.00 to 6.00 | > 6.00 | – | A (a Ki ratio greater than or equal to 10 fold between the Ki in the presence of SAM and the Ki in the presence of MTA) | B* (an IC50 ratio greater than or equal to 3 fold but lower than 10 fold between the IC50 in the HAP1 MTAP-intact cell line and the HAP1 MTAP-deleted cell line) | –

Further lines, with some results ahead:

Row | pIC50 (PRMT5 [1]) | pIC50 (PRMT5 [2]; read-out: No Co-factor IC50) | pIC50 (PRMT5 [3]) | pIC50 (HAP1 MTAP-intact) | pIC50 (HAP1 MTAP-deleted) | pIC50 (PRMT5 [2]) | Compound | SAM/MTA Ratio (PRMT5 [3]; [4]) | MTAP Intact/Deleted Ratio (HAP1 MTAP-deleted) | SAM/MTA Ratio (PRMT5 [3]; [5])
6 | 5.30 to 6.30 | ≤ 5.30 | 6.30 to 7.30 | ≤ 5.00 | 5.00 to 6.00 | – | Cc1ncoc1COc1ccc2c(c1C)CCN(C[C@@H](O)CNC(=O)c1cc(NC3COC3)nc(N3CCOCC3)n1)C2 [Compound 423, N-[(2S)-2-hydroxy-3-{5-methyl-6-[(4-methyl-1,3-oxazol-5-yl)methoxy]-1,2,3,4-tetrahydroisoquinolin-2-yl}propyl]-2-(morpholin-4-yl)-6-[(oxetan-3-yl)amino]pyrimidine-4-carboxamide] | A (a Ki ratio greater than or equal to 10 fold between the Ki in the presence of SAM and the Ki in the presence of MTA) | C* (an IC50 ratio of less than 3 fold between the IC50 in the HAP1 MTAP-intact cell line and the HAP1 MTAP-deleted cell line) | –
7 | 5.30 to 6.30 | – | > 7.30 | 5.00 to 6.00 | > 6.00 | 5.30 to 6.30 | Cc1ncoc1COc1ccc2c(c1)CCN(C[C@@H](O)CNC(=O)c1ccnc(NC3CC4(CCC4)C3)c1)C2 [Compound 609, (S)—N-(2-hydroxy-3-(6-((4-methyloxazol-5-yl)methoxy)-3,4-dihydroisoquinolin-2(1H)-yl)propyl)-2-(spiro[3.3]heptan-2-ylamino)isonicotinamide] | – | B* (an IC50 ratio greater than or equal to 3 fold but lower than 10 fold between the IC50 in the HAP1 MTAP-intact cell line and the HAP1 MTAP-deleted cell line) | A (a Ki ratio greater than or equal to 10 fold between the Ki in the presence of SAM and the Ki in the presence of MTA)
8 | 6.30 to 7.30 | 5.30 to 6.30 | 6.30 to 7.30 | ≤ 5.00 | ≤ 5.00 | – | CN1CCN(c2cc(C(=O)NC[C@H](O)CN3CCc4c(ccc(OCc5cnco5)c4Cl)C3)cc(NC3CCC3)n2)CC1 [Compound 419, (S)—N-(3-(5-chloro-6-(oxazol-5-ylmethoxy)-3N-dihydroisoquinolin-2(1H)-yl)-2-hydroxypropyl)-2-(cyclobutylamino)-6-(4-methylpiperazin-1-yl)isonicotinamide] | A (a Ki ratio greater than or equal to 10 fold between the Ki in the presence of SAM and the Ki in the presence of MTA) | C* (an IC50 ratio of less than 3 fold between the IC50 in the HAP1 MTAP-intact cell line and the HAP1 MTAP-deleted cell line) | –
9 | 6.30 to 7.30 | ≤ 5.30 | 6.30 to 7.30 | 5.00 to 6.00 | > 6.00 | – | CC(=O)N1CCC(Nc2cc(C(=O)NC[C@H](O)CN3CCc4cc(OCc5ocnc5C)ccc4C3)cc(N3CCCCC3)c2)CC1 (single isomer, unassigned) [Compound 631] | A (a Ki ratio greater than or equal to 10 fold between the Ki in the presence of SAM and the Ki in the presence of MTA) | B* (an IC50 ratio greater than or equal to 3 fold but lower than 10 fold between the IC50 in the HAP1 MTAP-intact cell line and the HAP1 MTAP-deleted cell line) | –
10 | 6.30 to 7.30 | – | 6.30 to 7.30 | ≤ 5.00 | 5.00 to 6.00 | 6.30 to 7.30 | CC(=O)N1CCC(Nc2cc(C(=O)NC[C@H](O)CN3CCc4cc(OCc5ocnc5C)ccc4C3)cc(N3CCN(C)CC3)n2)CC1 [Compound 584, 2-[(1-acetylpiperidin-4-yl)amino]-N-[(2S)-2-hydroxy-3-{6-[(4-methyl-1,3-oxazol-5-yl)methoxy]-1,2,3,4-tetrahydroisoquinolin-2-yl}propyl]-6-(4-methylpiperazin-1-yl)pyridine-4-carboxamide] | – | B* (an IC50 ratio greater than or equal to 3 fold but lower than 10 fold between the IC50 in the HAP1 MTAP-intact cell line and the HAP1 MTAP-deleted cell line) | A (a Ki ratio greater than or equal to 10 fold between the Ki in the presence of SAM and the Ki in the presence of MTA)
11 | 6.30 to 7.30 | – | 6.30 to 7.30 | ≤ 5.00 | 5.00 to 6.00 | 5.30 to 6.30 | CC(=O)N1CC(Nc2cc(C(=O)NC[C@H](O)CN3CCc4cc(OCc5cnco5)ccc4C3)nc(N3CCOCC3)n2)C1 [Compound 583] | – | C* (an IC50 ratio of less than 3 fold between the IC50 in the HAP1 MTAP-intact cell line and the HAP1 MTAP-deleted cell line) | A (a Ki ratio greater than or equal to 10 fold between the Ki in the presence of SAM and the Ki in the presence of MTA)
12 | 6.30 to 7.30 | – | 6.30 to 7.30 | 5.00 to 6.00 | 5.00 to 6.00 | ≤ 5.30 | Cc1ncoc1COc1ccc2c(c1)CCN(C[C@@H](O)CNC(=O)c1cc(NC3COC3)nc(N3CCN(C(C)C)CC3)n1)C2 [Compound 492, N-[(2S)-2-hydroxy-3-{6-[(4-methyl-1,3-oxazol-5-yl)methoxy]-1,2,3,4-tetrahydroisoquinolin-2-yl}propyl]-6-[(oxetan-3-yl)amino]-2-[4-(propan-2-yl)piperazin-1-yl]pyrimidine-4-carboxamide] | – | C* (an IC50 ratio of less than 3 fold between the IC50 in the HAP1 MTAP-intact cell line and the HAP1 MTAP-deleted cell line) | A (a Ki ratio greater than or equal to 10 fold between the Ki in the presence of SAM and the Ki in the presence of MTA)
